Experimental data taken from patent publication US9427455B2, “Use of the pat nanopeptide in the treatment of autoimmune diseases” (CLL PHARMA, priority 2008, dated 2016).

How the values were obtained:
Type in all cases: in vivo
[1] = test system: arthritic rats of OFA (SD) strain; assay: Arthritis induced by Freund's adjuvant (Mycobacterium butyricum) in the rat; details: for volume of the leg: 5 times per week during 3 weeks, from Day 14 until Day 21, FIG. 4; for hypersensitivity measured by the plantar test: Day 16, equivalent to non-arthritic reference group, FIG. 6; for erythrocyte sedimentation rate (ESR): FIG. 7; for macroscopic clinical score: FIG. 5
Method: We used the model of arthritis induced by Freund' adjuvant as described in the article of Milan et al., J Neurosci 1986; 6: 899-906. The rats are administered with Mycobacterium butyricum develop usually a severe polyarthritis which resembles to that in human. Rats of OFA (SD) strain (Oncins France Strain A) weighing approximately 200 g received an […] of a 10 mg/ml Mycobacterium butyricum solution at the articulation of the right ankle. For all the measured parameters, the rats were divided into 5 groups (8 rats/group) in the following way: • reference group: the rats received a paraffin injection instead of the solution of Mycobacterium butyricum (no induced arthritis) then receive an intraperitoneal injection of saline solution; • arthritic group+injection of saline solution; • arthritic group+intraperitoneal injection of 3 mg/kg indomethacin; the indomethacin being a NSAID classically used as reference in this kind of test; • arthritic group+intraperitoneal injection of 0.4 […]; […] The products are administered 5 times per week during 3 weeks. At the beginning of the experimentation (day 0), one determines the initial values for the different parameters (volume of the leg, macroscopic clinical score, sedimentation test and hypersensitivity). During the experiment, several parameters are measured: • the volume of the leg (“paw latency duration”); • the globular sedimentation test (“Erythrocyte Sedimentation rate”); • the macroscopic score: • “0” means that no sign of arthritis was detected; • “1” means that a swelling or an inflammation was detected on a leg; • “2” means that a swelling or an inflammation was detected on two legs; • “3” means that a swelling or an inflammation was detected on at lest 3 legs; • “4” means that a swelling or an inflammation was detected on the 4 legs. • hypersensitivity according to the plantar test: carried out according to Yukinori Nagakura and al, Allodynia and hyperalgesia in adjuvant-induced arthritic rats: time course of progression and efficacy of analgesics, JPET 306: 490-497, 2003, or in Andersen M L and al “Evaluation of acute and chronic treatments with Harpagophytum procumbens one Freund's adjuvant-induced arthritis in rats”. J. Ethnopharmacol. 2004 April; 91 (2-3): 325-30; • the erythrocyte sedimentation rate (ESR): the increase in this one generally accompanies the clinical symptoms met in induced arthritis. The ESR is measured in the arthritic rats (at Day 21) 1 hour and 2 hours after the injection of PAT or indomethacin, according to the protocol of Mahajan S G, et al., Protective Effect of Ethanolic Extract of Seeds of Moringa will oleifera Lam. Against Inflammation Associated with Development of Arthritis in Rats. J. Immunotoxicol. 2007 January; 4 (1): 39-47.

IL-10 = assay: Expression of IL-10 in colon by quantitative RT-PCR, TNBS colitis mice; details: PAT 25 μg/mouse before TNBS; not increased with TNBS alone; FIG. 3
Method: (§1) Colitis is induced in C57BL/6J mice of 7-8 weeks old after TNBS administration per rectal route according to the protocol described by Sugimoto K. et al (Gastroenterology 2002: 123; 1912-1922). The administration is performed directly in the lumen of the colon (over a 3-4 cm length) by using a 1 ml-syringe and a polyethylene cannula (Intradermic PE-20, Becton Dickinson) of a 100 μl solution containing 2.5 mg of TNBS dissolved beforehand in 50 μl of ethanol. After the administration, the mice are maintained 30 seconds in vertical position. […]
(§2) The latter is carried out by denaturation with guanidine thiocyanate; cDNA synthesis is made starting from 1 ng of RNA using a kit (Euromedex). A quantitative PCR is carried out; the reaction is performed in a 25 μl final volume by using SYBR kit (Eurogentec). Stimulation rate is determined for each cytokine compared to reference cDNA which is that corresponding to […] ribosomal phosphoprotein.

[2] = test system: C57BL/6J mice with colitis induced by TNBS; assay: TNBS-induced experimental colitis in mice (animal weight, colon inflammation); details: for effect on animal weight (weight loss induced by TNBS): FIG. 1
Method: The PAT nonapeptide was studied in animal model of experimental colitis. In mice, one of the clearly established IBD colitis models is the one in which the induction is performed by the use of trinitrobenzene sulphonic acid (TNBS). TNBS is a hapten which, when it is administered by intrarectal route, induced a severe colonic transmural inflammation; the induced effects present many similarities with those induced by Crohn's disease (Elson C O et al Experimental models of inflammatory bowel disease. Gastroenterology 2003; 10: 1344-67; Strober W et al., The immunology of mucosal models of inflammation. Annu Rev Immunol 2002; 20: 495-49).
Colitis is induced in C57BL/6J mice of 7-8 weeks old after TNBS administration per rectal route according to the protocol described by Sugimoto K. et al (Gastroenterology 2002: 123; 1912-1922). The administration is performed directly in the lumen of the colon (over a 3-4 cm length) by using a 1 ml-syringe and a polyethylene cannula (Intradermic PE-20, Becton Dickinson) of a 100 μl solution containing 2.5 mg of TNBS dissolved beforehand in 50 μl of ethanol. After the administration, the mice are maintained 30 seconds in vertical position.
The design of the study is the following: • one control batch of 5 mice treated by ethanol/PBS mixture (vol/vol): • one test batch of 10 mice to which TNBS is administered (2.5 mg in 50% ethanol); • one test batch of 10 mice to which TNBS and nonapeptide are administered with the amount of 1 μg/mouse; • one test batch of 10 mice to which TNBS and nonapeptide are administered with the amount of 5, μg/mouse; • one batch of 10 mice to which TNBS and nonapeptide are administered with the amount of 25 μg/mouse.
The PAT nonapeptide is administered by intraperitoneal route 30 minutes before the TNBS induction of colitis. Several mice (5 of each test batch; 2 of control batch) are sacrificed at day 1 after TNBS induction. The remaining mice (5 of each test batch; 3 of control batch) are sacrificed at day 3 after TNBS induction.
The animals are weighed every day until the sacrifice.
As soon as the animals are sacrificed, the colon is sampled and a macroscopic analysis is carried out.

IL-6 = assay: Expression of IL-6 in colon by quantitative RT-PCR, TNBS colitis mice; details: 25 μg of PAT per mouse; TNBS alone increases around 30 fold; FIG. 3
Method: as §1, §2

IL-1β = assay: Expression of IL-1β in colon by quantitative RT-PCR, TNBS colitis mice; details: 25 μg of PAT; TNBS alone increases almost 50 fold; FIG. 3
Method: as §1, §2

TNF-α = assay: Expression of TNF-α in colon by quantitative RT-PCR, TNBS colitis mice; details: PAT 25 μg/mouse; TNBS alone increases around 4 fold; FIG. 3
Method: as §1, §2

With `COc1ccc2c(c1)c(CC(=O)O)c(C)n2C(=O)c1ccc(Cl)cc1` [indomethacin, reference compound] the “volume of the leg” value ([1]; indomethacin 3 mg/kg i.p.) was “notable reduction of inflammation and of the volume of the leg”, the “hypersensitivity measured by the plantar test” value (“hypersensitivity measured” below) ([1]; indomethacin 3 mg/kg i.p.) was “hypersensitivity is very reduced” and the “erythrocyte sedimentation rate (ESR)” value ([1]; indomethacin 3 mg/kg i.p., Day 21) was “reduced in a very important way”. For the same molecule, the macroscopic clinical score ([1]; indomethacin 3 mg/kg i.p., compared to arthritic rats given saline solution) was “significant reduction in the macroscopic score”.
For “H EAKSQGGSD-NH2 (H-EAKSQGGSD-NH2) [PAT nonapeptide]”, the “increase of IL-10 anti-inflammatory cytokine level” value (IL-10) was “more than 3 fold”, the progression of arthritis ([1]; PAT 0.4 μg/kg (i.p), leg, peripheral hypersensitivity and ESR) was “reduce very significantly the progression of arthritis” and the “efficacy compared with indomethacin 3 mg/kg” value ([1]; PAT 0.4 μg/kg (i.p.), a dose 7500 fold lower than indomethacin) was “at least a similar efficacy”. The “volume of the leg” value ([1]; PAT 0.4 μg/kg i.p.) was “notable reduction of inflammation and of the volume of the leg”, the “hypersensitivity measured” value ([1]; PAT 0.4 μg/kg i.p.) was “hypersensitivity is very reduced” and the “erythrocyte sedimentation rate (ESR)” value ([1]; PAT 0.4 μg/kg i.p., Day 21, 1 hour after the injection, compared to indomethacin group, very similar to reference rats) was “more reduced ESR”. The macroscopic clinical score ([1]; PAT 0.4 μg/kg i.p., compared to arthritic rats given saline solution) was “significant reduction in the macroscopic score”, the “volume of the leg” value ([1]; PAT 4 μg/kg i.p.) was “notable reduction of inflammation and of the volume of the leg” and the “hypersensitivity measured” value ([1]; PAT 4 μg/kg i.p.) was “hypersensitivity is very reduced”. The “erythrocyte sedimentation rate (ESR)” value ([1]; PAT 4 μg/kg i.p., Day 21) was “did not have a significant effect on the reduction of ESR”, the macroscopic clinical score ([1]; PAT 4 μg/kg i.p., compared with 0.4 μg/kg) was “shows less effects” and the “effect on animal weight (weight loss induced by TNBS)” value ([2]; PAT 1 μg/mouse i.p. 30 minutes before TNBS) was “do not show a significant effect”. The “effect on animal weight (weight loss induced by TNBS)” value ([2]; PAT 5 μg/mouse i.p. 30 minutes before TNBS) was “do not show a significant effect”, the “effect on animal weight (weight loss induced by TNBS)” value ([2]; PAT 25 μg/mouse i.p. 30 minutes before TNBS) was “allows to limit this weight loss” and the “colon length, on average” value ([2]; TNBS-PAT treated mice, control mice 7 cm, TNBS-treated mice 5 cm) was 6.5 cm. For the same molecule, the “colon inflammation caused by TNBS rectal injection (macroscopic analysis)” value ([2]; i.p. 30 minutes before TNBS, dose dependant, maximal effect at 25 μg/mouse, FIG. 2) was “reduce to a significant extent inflammation”, the IL-6 expression (IL-6) was “decreases to a significant extent” and the IL-1β cytokine expression (IL-1β) was “decreases to a significant extent”. For the same molecule, the TNF-α expression (TNF-α) was “the increase is notably reduced”.
